Measured values from patent US8618079B2, “Imidazo[1,2-a] pyridinyl bisphosphonates” (Isis Innovation Limited, priority 2008, dated 2013).

What was measured:
[1] = Hydroxyapatite (HAP) affinity, chromatographic retention on HAP column; format: physicochemical; details: phosphate buffer gradient 1 mM to 1000 mM, pH 6.8, longer retention = higher mineral affinity
[2] = biological target: T1, human farnesyl pyrophosphate synthase (FPPS) (Homo sapiens, UniProt P14324); assay: FPPS inhibition; format: biochemical; details: recombinant human FPPS; for IC50: after pre-incubation; for Ki: read-out: FPPS inhibition Ki (final inhibition constant)
T1 construct: made in house
T1 sequence (P14324 67-419 limits assumed): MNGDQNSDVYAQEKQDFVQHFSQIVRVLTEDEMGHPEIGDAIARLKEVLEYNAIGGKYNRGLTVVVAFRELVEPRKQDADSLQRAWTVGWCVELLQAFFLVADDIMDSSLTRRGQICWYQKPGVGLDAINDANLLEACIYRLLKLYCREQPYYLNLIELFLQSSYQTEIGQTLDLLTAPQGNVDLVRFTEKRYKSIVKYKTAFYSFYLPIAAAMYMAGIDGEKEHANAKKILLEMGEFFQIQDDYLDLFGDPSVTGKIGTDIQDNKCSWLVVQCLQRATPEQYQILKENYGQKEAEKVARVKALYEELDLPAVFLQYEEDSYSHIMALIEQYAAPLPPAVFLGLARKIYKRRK

Sprague Dawley rats = assay: Schenk model, in vivo bone resorption inhibition (tibial BMD); details: rat, subcutaneous once daily for 7 days; dose increasing proximal tibial BMD 20% over control
Method: The compounds were evaluated for in vivo bone resorption inhibition and mineralization inhibition in an animal model system known in the field of bone metabolism as the Schenk Model. The general principles of this model system are disclosed in Shinoda et al., Calcif. Tissue Int., 35: 87-99 (1983); and in Schenk et al., Calcif. Tissue Res. 11: 196-214 (1973), the disclosures of which are incorporated herein by reference in their entireties.
Animals: Weanling male Sprague Dawley rats (Charles River Breeding Laboratories, Raleigh, N.C.) approximately 6 weeks old with weights ranging between 120 and 150 grams were placed into groups based on body weight, with 6 animals per group. All groups received treatment by subcutaneous injection (SQ) once daily (QD) for 7 days.
Dose Solutions and Dosing Procedure: On day 0, all animals received an injection of 3% xylenol orange (90 mg/kg; Sigma) in normal saline, pH adjusted to 7.4. On day 4 all animals were given a subcutaneous injection of 1% Calcein (10 mg/kg, Sigma) in 0.9% NaCl solution to label the skeleton. The first treatment was on day 0, and the last treatment on day 6, with animals euthanized on day 7. Concentrations were based on dosing 0.2 ml/100 g body weight. Compounds were administered at doses ranging from 0.0001 to 1 mg P/kg/day for 7 days at semi-log doses. The dose range was based on the IC 50 in the FPPS inhibition assay, and on the affinity to hydroxyapatite (HAP Affinity). Three to seven doses were chosen per test compound. Adjustments in dosage based on changes in body weight were made on a daily basis.
Necropsy, Tissue Processing and Histomorphometry: On day 7 after the start of dosing, all animals were euthanized via exsanguination under gas anesthesia and/or CO2. The right tibia and femur were dissected free and placed in 70% ethyl alcohol. The proximal metaphysis of the right tibia was analyzed using dual energy x-ray analysis (DXA). This provides information on changes in both cortical and cancellous bone density. The primary end-point for this study was bone mineral density in the tibia measured using a Hologics QDR-4500 densitometer (Hologics, Inc). Statistical evaluation of data was made using parametric and non-parametric analysis of variance and Wilcoxon's rank sum test to determine a statistically significant effect compared to control animals.
The Schenk model provided data for in vivo bone resorption inhibition by the compounds, see Table 3. Bone mineral density (BMD) was assessed with a Hologics 4500A on a region of the proximal tibial metaphysic. Efficacy of each bisphosphonate was expressed as the percent change from the vehicle control group. The dose that increased bone mineral density (BMD) 20% greater than control was determined via a logistic dose response relationship (SAS), which estimates an efficacy value using all animals in the study, and identified as D20 for comparison of bisphosphonates across studies. (Lundy et al., J. Bone Min. Res. 22(Suppl 1): S443, (2007)). Data from compounds run in multiple studies was averaged.

[3] = tested on: collagen induced arthritis (CIA) rat; assay: Collagen induced arthritis (CIA) rat model, bone resorption scores; format: in vivo
Method: The collagen induced arthritis (CIA) rat model is an in vivo model that provides for an evaluation of the inhibition of inflammation as well as inhibition of bone erosion. The study was performed according to the method of Bendele et al., Arthritis & Rheumatism, 43: 2648-2659 (2000), incorporated herein by reference in its entirety, with the exception that male animals were used instead of female animals.
Arthritis was induced in rats by injecting collagen on days 0 and 6. The bisphosphonate compound of Example 4 (1-fluoro-2-(imidazo-[1,2-α]pyridin-3-yl)-ethyl-bisphosphonic acid) was administered at four different dosages (1.57 μg/kg, 15.69 μg/kg, 156.9 μg/kg, and 523.0 μg/kg; n=10/group) by subcutaneous injection on day 0, and compared to vehicle control (n=10). An additional group was administered 10 mg/kg Enbrel® (n=10) on days 9, 12, and 15 as a positive control. The study was stopped on day 17 and the animals were evaluated for ankle thickness and paw weight, indices of inflammation. The ankle and knees were removed as one piece, placed in formalin, decalcified and processed for histology. Sections were stained with toluidine blue and graded for inflammation, pannus and cartilage degradation on a score of 0 (normal) to 5 (severe). Bone erosion was also scored in the ankle and knee on a 0-5 score.

HAP Affinity Retention time [1] [min] | IC50 [2] [nM] | Ki [2] [nM] | SMILES | Schenk D20 (mg P/kg) 20% > BMD than control (Sprague Dawley rats) [mg P/kg] | ankle bone resorption score, dose response ([3]; single subcutaneous injection day 0, 1.57-523.0 μg/kg, scored day 17 (FIG. 9)) | knee bone resorption score, dose response ([3]; single subcutaneous injection day 0, 1.57-523.0 μg/kg, scored day 17 (FIG. 10)) | knee bone resorption score, decrease relative to vehicle ([3]; three highest dosage levels (15.69 μg/kg, 156.9 μg/kg and 523.0 μg/kg), p=0.05 (FIG. 10)) | ankle bone resorption score, decrease relative to vehicle ([3]; two highest dosage levels (156.9 μg/kg and 523.0 μg/kg), p=0.05 (FIG. 9))
5.3 | 893 | 151 | O=P(O)(O)C(Cc1cnc2c(O)cccn12)P(=O)(O)O [compound 40, [2-(8-hydroxy-imidazo[1,2-α]pyridin-3-yl)-1-ethane]-bisphosphonic acid] |  |  |  |  | 
6.6 | 2.59 | 0.013 | O=P(O)(O)C(Cc1cnc2ccccn12)P(=O)(O)O [compound 80, 2-(imidazo-[1,2-α]pyridin-3-yl)-ethyl-bisphosphonic acid] | 0.0006 |  |  |  | 
6.2 | 60.3 | 9.6 | Cc1ccn2c(CC(F)(P(=O)(O)O)P(=O)(O)O)cnc2c1 [compound 11, 1-fluoro-2-(7-methyl)-imidazo-[1,2-α]pyridin-3-yl-ethyl-bisphosphonic acid] | 0.002 |  |  |  | 
6.6 | 39.7 | 6.1 | Cc1ccn2c(CC(P(=O)(O)O)P(=O)(O)O)cnc2c1 [compound 15, 2-(7-methyl)-imidazo-[1,2-α]pyridin-3-yl-ethyl-bisphosphonic acid] | 0.008 |  |  |  | 
 |  |  | NCCCC(O)(P(=O)(O)O)P(=O)(O)O [Alendronate, reference compound] | 0.0015 |  |  |  | 
12.53 |  |  | O=P(O)(O)C(O)(Cn1ccnc1)P(=O)(O)O [Zoledronate, reference compound] | 0.00008 |  |  |  | 
6.6 | 380 | 64 | Cc1ccc2ncc(CC(P(=O)(O)O)P(=O)(O)O)n2c1 [compound 81, 2-(6-methylimidazo-[1,2-α]pyridin-3-yl)-ethyl-bisphosphonic acid] |  |  |  |  | 
9.97 |  |  | O=P(O)(O)C(O)(Cc1cccnc1)P(=O)(O)O [Risedronate, reference compound] | 0.00045 |  |  |  | 
6.17 | 2.46 | 0.014 | O=P(O)(O)C(F)(Cc1cnc2ccccn12)P(=O)(O)O [compound 23, 1-fluoro-2-(imidazo-[1,2-α]pyridin-3-yl)-ethyl-bisphosphonic acid] | 0.0003 | dose-dependent decrease in bone resorption | dose dependent decrease in bone resorption | statistically different | statistically different
4.83 | 27 | 2.5 | CCc1nc2ccccn2c1CC(P(=O)(O)O)P(=O)(O)O [compound 75, [(2-ethyl-imidazo[1,2-α]pyridin-3-yl)-methyl]-bisphosphonic acid] |  |  |  |  | 
6.3 | 106 | 17.5 | O=P(O)(O)C(Cc1cnc2ccc(F)cn12)P(=O)(O)O [compound 34, [2-(6-fluoro-imidazo[1,2-α]pyridin-3-yl)-ethyl]-bisphosphonic acid] |  |  |  |  | 

SMILES | HAP Affinity Retention time [1] [min] | IC50 [2] [nM] | Ki [2] [nM] | Schenk D20 (mg P/kg) 20% > BMD than control (Sprague Dawley rats) [mg P/kg] | ankle bone resorption score, dose response ([3]; single subcutaneous injection day 0, 1.57-523.0 μg/kg, scored day 17 (FIG. 9)) | knee bone resorption score, dose response ([3]; single subcutaneous injection day 0, 1.57-523.0 μg/kg, scored day 17 (FIG. 10)) | knee bone resorption score, decrease relative to vehicle ([3]; three highest dosage levels (15.69 μg/kg, 156.9 μg/kg and 523.0 μg/kg), p=0.05 (FIG. 10)) | ankle bone resorption score, decrease relative to vehicle ([3]; two highest dosage levels (156.9 μg/kg and 523.0 μg/kg), p=0.05 (FIG. 9))
O=P(O)(O)C(O)(Cc1cnc2ccccn12)P(=O)(O)O [Minodronate, reference compound] | 10.33 |  |  | 0.0001 |  |  |  | 
